The results in this text go back to US8071551B2, “Methods and compositions for treating diabetes” (BioHolding, Inc., priority 1999, dated 2011).

In experiment [1] the test system is RCG Neuron (rat cerebral granule) cells. In words: Apoptosis induced by depletion of serum in RCG neuron cells (Hoechst 33258 staining, fluorescence microscope). In kind it is cell-based. To be noted: BME without serum, 10 hours, Hoechst dye 33258. The procedure:
RCG neuronal cells are seeded into cell culture dishes in 400 μl cell culture medium (Eagle's basal medium, BME) containing 10% (v/v) FBS. At day two the now conditioned medium is removed and the cells are treated for 10 hours as follows:
Then the medium is replaced with 4% (w/v) paraformaldehyde, incubated for 15 minutes at room temperature, and the cells stained with Hoechst dye 33258 (8 μg/ml) for 15 minutes at room temperature. The apoptosis in the cells is evaluated using a fluorescence microscope by an evaluator blinded to the method of treatment.

The subject of experiment [2] is Primary rat brain granule cells. In words: Apoptosis associated with serum depletion in primary rat brain granule cells. In kind it is cell-based. To be noted: α1-antitrypsin 3.0 mg/ml, one hour pretreatment, medium devoid of fetal bovine serum, 24 hours of culture. As to the method: Primary rat brain granule cells are pretreated for one hour in the absence or presence of α1-antitrypsin (3.0 mg/ml), followed by replacement of the cell culture medium with either control medium containing 10% (vol/vol) fetal bovine serum, medium devoid of fetal bovine serum, or medium devoid of fetal bovine serum but containing α1-antitrypsin.

With `Cc1cccc(Cc2nnc(C(=O)[C@@H](NC(=O)[C@@H]3CCCN3C(=O)[C@@H](NC(=O)OCc3ccccc3)C(C)C)C(C)C)o2)c1` [CE-2072, benzyloxcarbonyl-L-valyl-N-[1-(2-[5-(3-methylbenzyl)-1,3,4-oxadiazolyl]carbonyl)-2-(S)-Methylpropyl]-L-prolinamide, reference compound], the “apoptosis induced by depletion of serum” value in experiment [1] (CE-2072 60 μM in DMSO) is reported as “blocked”.

Consider “lyophilized α1-antitrypsin: lyophilized preparation of the serine protease inhibitor α1-antitrypsin”, for which the “apoptosis induced by depletion of serum” value in experiment [1] (lyophilized AAT 50 μM) is “blocked”.

As for “α1-Antitrypsin: serine protease inhibitor α1-antitrypsin”, the “apoptosis associated with serum depletion” value in experiment [2] is reported as “completely reverses”.
